Assay results: US11964988B2, “Fused heterocyclic compounds as RET kinase inhibitors” (ARRAY BIOPHARMA INC., priority 2018, dated 2024)
Residue numbers refer to the chain shown, from its start.

Key:
G810S mutant RET kinase = G810S mutant RET kinase (Homo sapiens, UniProt P07949, G810S); experiment: biochemical;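 further: HTRF KinEASE-TK kinase assay with recombinant enzyme, 1 h at 22 °C, dual-wavelength ratiometric read-out, percent of control (DMSO-only = 100, pre-quenched reaction = 0)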
[1] = target: T1, HEK-293 cells expressing a Kif5b-RET fusion protein (Homo sapiens, UniProt P07949); experiment: RET Cell Assay (phospho-RET Tyr1062); format: cell-based; settings: HEK-293 Kif5b-RET, 1 hour incubation, phospho-RET normalized to GAPDH; read-out: KIF5B-RET pTYR1062 Cell IC50
T1 construct: KIF5B (N-terminal portion incl. coiled-coil); expressed in transfected cells; host or cells: HEK-293; the other entry of the earlier key: KIF5B (P33176, Kinesin-1 heavy chain)
T1 sequence (P07949 713-1063 limits assumed): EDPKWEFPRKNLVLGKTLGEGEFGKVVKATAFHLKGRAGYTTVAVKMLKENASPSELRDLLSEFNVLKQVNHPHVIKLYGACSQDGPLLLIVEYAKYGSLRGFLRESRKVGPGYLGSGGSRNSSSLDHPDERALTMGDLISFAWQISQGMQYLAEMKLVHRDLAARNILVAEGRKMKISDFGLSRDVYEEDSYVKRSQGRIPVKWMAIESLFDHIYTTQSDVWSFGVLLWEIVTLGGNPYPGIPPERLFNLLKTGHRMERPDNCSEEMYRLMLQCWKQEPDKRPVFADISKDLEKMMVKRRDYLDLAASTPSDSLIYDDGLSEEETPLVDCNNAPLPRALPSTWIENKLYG
Method: (§1) The cellular potency of compounds inhibiting RET kinase were determined in HEK-293 cells expressing a Kif5b-RET fusion protein. Briefly, HEK-293 cells expressing a Kif5b-RET fusion protein were plated at 50K cells/well in 96 well poly-D-Lysine coated plates the day prior to the assay. The cells were incubated for 1 hour with test compound in DMEM (Dulbecco's Modified Eagle Medium) at a final DMSO concentration of 0.5%. […] After 1 hour the media was removed, the cells were fixed with 3.8% formaldehyde for 20 min, washed with PBS, and permeabilized for 10 min with 100% methanol. The plates were then washed with PBS-0.05% Tween20, and blocked with LI-COR Blocking solution (LI-COR Catalog No. 927-40000) for 1 hour. Plates were washed with PBS-0.05% Tween20, then incubated with anti-phospho-RET (Tyr1062) (Santa Cruz Catalog No. sc-20252-R) antibody and anti-GAPDH (Millipore Catalog No. MAB374) antibody for 2 hours. The plates were washed with PBS-0.05% Tween20, and incubated with anti-rabbit 680 (Molecular Probes Catalog No. A21109) and anti-mouse 800 (LI-COR Catalog No. 926-32210) secondary antibodies for 1 hour. All antibodies were diluted in LI-COR Block containing 0.05% Tween. The plates were washed with PBS-0.05% Tween20,100 μL PBS is added to each well, and the plates were read on a LI-COR Aerius fluorescent plate reader. The phospho-RET signal was normalized to the GAPDH signal. […] The POC values were fit to a 4 parameter logistic curve. The IC50 value is the point where the curve crosses 50 POC.

G810R mutant RET kinase = G810R mutant RET kinase (Homo sapiens, UniProt P07949, G810R); experiment: biochemical;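 further: HTRF KinEASE-TK enzymatic assay with 1 nM recombinant RET G810R, 1 h at 22 °C, dual-wavelength ratiometric readout, 100% control without compound, 0% from pre-quenched reactions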
RET kinase Wild Type = RET kinase Wild Type (Homo sapiens, UniProt P07949); experiment: biochemical;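 further: HTRF kinase activity assay on RET enzyme, 1 h reaction at 22 °C, dual-wavelength readout as percent of control, DMSO-only wells as 100%, pre-quenched reactions as 0%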
[2] = target: T2, HEK-293 cells expressing a G810R mutant RET Kif5b-RET fusion protein (Homo sapiens, UniProt P07949, G810R); experiment: RET G810R Mutant Cell Assay (phospho-RET Tyr1062); format: cell-based; settings: HEK-293 Kif5b-RET G810R, 1 hour incubation, phospho-RET normalized to GAPDH
T2 construct: KIF5B (N-terminal portion incl. coiled-coil); expressed in transfected cells; host or cells: HEK-293; the other entry of the earlier key: KIF5B (P33176, Kinesin-1 heavy chain)
T2 sequence (P07949 713-1063 G810R limits assumed): T1 sequence (P07949 713-1063 limits assumed) with G98R
Method: as §1, with “expressing a G810R or G810S mutant RET Kif5b-RET fusion” for “expressing a Kif5b-RET fusion”, “μL PBS was added to” for “μL PBS is added to”, “POC values are fit to” for “POC values were fit to”

RET kinase V804M = RET kinase V804M (Homo sapiens, UniProt P07949, V804M); experiment: RET Enzyme Assay (CisBio HTRF KinEASE-TK), V804M; format: biochemical; settings: read-out: RET V804M Enz FRET IC50
Sequence of RET kinase V804M (P07949 29-1114 V804M): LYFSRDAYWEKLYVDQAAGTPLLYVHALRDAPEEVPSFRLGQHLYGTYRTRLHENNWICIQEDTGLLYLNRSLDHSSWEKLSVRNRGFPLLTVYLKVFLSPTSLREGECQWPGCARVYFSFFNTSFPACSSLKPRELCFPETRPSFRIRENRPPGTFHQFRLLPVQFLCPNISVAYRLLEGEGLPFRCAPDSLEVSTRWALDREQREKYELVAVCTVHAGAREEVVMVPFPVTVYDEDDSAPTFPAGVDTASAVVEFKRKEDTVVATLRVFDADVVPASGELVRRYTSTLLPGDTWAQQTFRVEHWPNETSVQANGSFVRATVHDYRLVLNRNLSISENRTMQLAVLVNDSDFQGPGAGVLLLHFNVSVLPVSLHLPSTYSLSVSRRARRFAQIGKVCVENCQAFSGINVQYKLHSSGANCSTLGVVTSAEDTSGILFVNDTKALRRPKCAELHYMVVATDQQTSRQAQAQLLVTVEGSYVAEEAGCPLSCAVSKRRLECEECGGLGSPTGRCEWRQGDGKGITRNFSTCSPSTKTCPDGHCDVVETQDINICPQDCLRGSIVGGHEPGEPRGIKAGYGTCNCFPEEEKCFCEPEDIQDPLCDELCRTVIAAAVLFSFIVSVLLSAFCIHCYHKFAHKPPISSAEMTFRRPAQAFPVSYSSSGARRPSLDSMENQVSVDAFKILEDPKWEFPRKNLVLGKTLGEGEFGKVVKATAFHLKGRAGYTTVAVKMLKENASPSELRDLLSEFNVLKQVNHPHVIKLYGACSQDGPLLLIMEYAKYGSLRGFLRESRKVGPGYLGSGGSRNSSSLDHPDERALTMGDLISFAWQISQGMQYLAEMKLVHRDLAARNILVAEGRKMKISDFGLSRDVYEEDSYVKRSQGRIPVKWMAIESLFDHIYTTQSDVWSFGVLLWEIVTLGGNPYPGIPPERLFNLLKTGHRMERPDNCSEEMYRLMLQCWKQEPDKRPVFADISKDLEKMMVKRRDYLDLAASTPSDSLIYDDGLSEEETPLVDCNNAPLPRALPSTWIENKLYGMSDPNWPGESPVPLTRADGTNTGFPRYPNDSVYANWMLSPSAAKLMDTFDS

Sequence of G810R mutant RET kinase (P07949 29-1114 G810R): as the sequence (P07949 29-1114 V804M) above, with M776V, G782R counted along it
Sequence of RET kinase Wild Type (P07949 29-1114): as the sequence (P07949 29-1114 V804M) above, with M776V counted along it
Sequence of G810S mutant RET kinase (P07949 29-1114 G810S): as the sequence (P07949 29-1114 V804M) above, with M776V, G782S counted along it

IC50 (G810S mutant RET kinase) [nM] | IC50 [1] [nM] | IC50 (G810R mutant RET kinase) [nM] | IC50 (RET kinase Wild Type) [nM] | IC50 [2] [nM] | IC50 (RET kinase V804M) [nM] | SMILES
65 | 103 | 47 | 34 | 394 | – | CC(C)n1c2c(c3c(N)ncnc31)-c1cc3ccccc3n1C(=O)NC2 [Example 69, 1-amino-5-isopropyl-6,7-dihydropyrimido[5″,4″:4′,5′]pyrrolo[2′,3′:5,6][1,3]diazepino[1,7-a]indol-8(5H)-one]
557 | 344 | 275 | 194 | 814 | – | CC(C)n1c2c(c3c(N)ncnc31)-c1ccc(Cl)cc1C(=O)NC2 [Example 45, 12-amino-3-chloro-8-isopropyl-7,8-dihydrobenzo[c]pyrimido[5′,4′:4,5]pyrrolo[3,2-e]azepin-5(6H)-one]
303 | 134 | 269 | 112 | 1950 | 9370 | CC(C)n1c2c(c3c(N)ncnc31)-c1ccc(C3CC3)cc1C(=O)NC2 [Example 47, 12-amino-3-cyclopropyl-8-isopropyl-7,8-dihydrobenzo[c]pyrimido[5′,4′:4,5]pyrrolo[3,2-e]azepin-5(6H)-one]
138 | 75 | 157 | 17 | 459 | 99 | CC(C)n1c2c(c3c(N)ncnc31)-c1noc(C3CC3)c1C(=O)N(CC1CC1)C2 [Example 5, 11-amino-3-cyclopropyl-5-(cyclopropylmethyl)-7-isopropyl-6,7-dihydroisoxazolo[4,3-c]pyrimido[5′,4′:4,5]pyrrolo[3,2-e]azepin-4(5H)-one]
1160 | 1780 | 485 | 386 | 4750 | – | CC(C)n1c2c(c3c(N)ncnc31)-c1cc3ccccc3n1C(=O)CC2 [Example 68, 1-amino-5-isopropyl-6,7-dihydropyrimido[5″,4″:4′,5′]pyrrolo[3′,2′:3,4]azepino[1,2-a]indol-8(5H)-one]
1320 | – | 1320 | 571 | – | 2210 | CC(C)n1c2c(c3c(N)ncnc31)-c1noc(C3CC3)c1CN(C)C2 [Example 31, 3-cyclopropyl-7-isopropyl-5-methyl-4,5,6,7-tetrahydroisoxazolo[4,3-c]pyrimido[5′,4′:4,5]pyrrolo[3,2-e]azepin-11-amine]
646 | – | 272 | 143 | – | 376 | CC(C)(O)[C@H]1C[C@@H](n2c3c(c4c(N)ncnc42)-c2noc(C4CC4)c2C(O)CC3)C1 (stereo partly shown) [Example 138, 11-Amino-3-cyclopropyl-7-((1s,3s)-3-(2-hydroxypropan-2-yl)cyclobutyl)-4,5,6,7-tetrahydroisoxazolo[4″,3″:6′,7′]cyclohepta[1′,2′:4,5]pyrrolo[2,3-d]pyrimidin-4-ol 2,2,2-trifluoroacetate]
488 | – | 560 | 112 | – | 355 | CC(=O)N1CCC(n2c3c(c4c(N)ncnc42)-c2noc(C4CC4)c2C(O)CC3)C1 (stereo not shown) [Example 134, 1-(3-(11-amino-3-cyclopropyl-4-hydroxy-5,6-dihydroisoxazolo[4″,3″:6′,7′]cyclohepta[1′,2′:4,5]pyrrolo[2,3-d]pyrimidin-7(4H)-yl)pyrrolidin-1-yl)ethan-1-one 2,2,2-trifluoroacetate]
405 | – | 211 | 139 | – | 415 | Nc1ncnc2c1c1c(n2C2CCOC2)CCC(=O)c2c-1noc2C1CC1 (stereo not shown) [Example 141, 11-Amino-3-cyclopropyl-7-(tetrahydrofuran-3-yl)-6,7-dihydroisoxazolo[4″,3″:6′,7′]cyclohepta[1′,2′:4,5]pyrrolo[2,3-d]pyrimidin-4(5H)-one]
282 | – | 435 | 357 | – | 1050 | COc1ccc(-n2c3c(c4c(N)ncnc42)-c2noc(C4CC4)c2C(O)CC3)cn1 (stereo not shown) [Example 114, 11-Amino-3-cyclopropyl-7-(6-methoxypyridin-3-yl)-4,5,6,7-tetrahydroisoxazolo[4″,3″:6′,7′]cyclohepta[1′,2′:4,5]pyrrolo[2,3-d]pyrimidin-4-ol 2,2,2-trifluoroacetate]
298 | – | 224 | 103 | – | 533 | CC(C)n1c2c(c3c(N)ncnc31)-c1noc(C3CC3)c1C(=O)N(CCN1CCS(=O)(=O)CC1)C2 [Example 9, 11-amino-3-cyclopropyl-5-(2-(1,1-dioxidothiomorpholino)ethyl)-7-isopropyl-6,7-dihydroisoxazolo[4,3-c]pyrimido[5′,4′:4,5]pyrrolo[3,2-e]azepin-4(5H)-one]
2580 | 1360 | 742 | 639 | 15500 | – | Cc1cc2n(n1)C(=O)NCc1c-2c2c(N)ncnc2n1C(C)C [Example 105, 12-amino-8-isopropyl-2-methyl-7,8-dihydropyrazolo[1,5-c]pyrimido[5′,4′:4,5]pyrrolo[3,2-e][1,3]diazepin-5(6H)-one 2,2,2-trifluoroacetate]
397 | – | 288 | 227 | – | 805 | CC(C)n1c2c(c3c(N)ncnc31)-c1noc(C3CC3)c1CN(c1ccn(C)n1)C2 [Example 34, 3-cyclopropyl-7-isopropyl-5-(1-methyl-1H-pyrazol-3-yl)-4,5,6,7-tetrahydroisoxazolo[4,3-c]pyrimido[5′,4′:4,5]pyrrolo[3,2-e]azepin-11-amine]
921 | – | 649 | 342 | – | 3120 | CC(C)n1c2c(c3c(N)ncnc31)-c1noc(C3CC3)c1CN(C(=O)C1CC1)C2 [Example 38, (11-amino-3-cyclopropyl-7-isopropyl-6,7-dihydroisoxazolo[4,3-c]pyrimido[5′,4′:4,5]pyrrolo[3,2-e]azepin-5(4H)-yl)(cyclopropyl)methanone]
